The text below walks through data of ChEMBL document CHEMBL1201862, “PubChem BioAssay data set” (2004).

Each structure is given as a SMILES string.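 Tested at 5 concentrations; 48 h exposure; 96-well plates; endpoints linearly interpolated, else capped at highest concentration. Here, GI50 denotes the concentration required for 50% inhibition of growth.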 Calls of active or inactive are those of the source. No stated cut-off is given here; in the data, active = GI50 up to about 1.1 µM and inactive = higher.

Some test systems named below: MOLT-4; NCI/ADR-RES; SK-OV-3; EKVX; SF-539; UACC-62; Hs-578T; K562; SR; HCT-116; HOP-92; SK-MEL-2; MDA-MB-435; RPMI-8226; OVCAR-4; CAKI-1; SNB-19; RXF 393; TK-10; A549.
What all share (assay): NCI tumour cell line growth inhibition, 48 h

`COC(=O)c1sc2c(=O)c(C(=O)OC)c(C(=O)OC)sc2c(=O)c1C(=O)OC`: the GI50 in the experiment on MOLT-4 was 5.85 µM (inactive); in the experiment with NCI/ADR-RES, > 100 µM (inactive); with SK-OV-3 it was > 100 µM (inactive); with EKVX, > 100 µM (inactive); in the experiment with SF-539 it was > 100 µM (inactive); in the experiment on UACC-62, > 100 µM (inactive). Besides, the GI50 in the experiment with Hs-578T was > 64.1 µM (inactive); with K562, 43.2 µM (inactive); with SR it was 37.8 µM (inactive); in the experiment with HCT-116, > 100 µM (inactive); in the experiment on HOP-92 it was > 100 µM (inactive); with SK-MEL-2, > 85.9 µM (inactive). The GI50 with MDA-MB-435, in the experiment on RPMI-8226, in the experiment with OVCAR-4, in the experiment with CAKI-1, in the experiment with SNB-19 and in the experiment with RXF 393 was > 100 µM (inactive) each time. In addition, the GI50 with TK-10 and in the experiment with A549 was > 100 µM (inactive) in each case.
In the case of `COC1C(O)C(O[C@H]2CC[C@@]3(C)C(CC[C@@H]4[C@@H]3CC[C@]3(C)[C@@H](C(C)OC5OC(CO)C(O)C(O)C5O)CC[C@]43O)C2)OC(C)C1OC1OC(CO)C(O)C(O)C1O` (stereo not given in full), the GI50 with MOLT-4, with NCI/ADR-RES, with SK-OV-3, with EKVX, with SF-539 and in the experiment with UACC-62 was > 100 µM (inactive) each time. Also, the GI50 in the experiment with Hs-578T, in the experiment on K562, in the experiment on SR, in the experiment on HCT-116, with HOP-92 and in the experiment with SK-MEL-2 was > 100 µM (inactive) throughout. Besides, the GI50 in the experiment on MDA-MB-435, in the experiment with RPMI-8226, in the experiment on OVCAR-4, with CAKI-1, in the experiment with SNB-19 and in the experiment with RXF 393 was > 100 µM (inactive) in each case. The GI50 in the experiment on TK-10 and with A549 was > 100 µM (inactive) each time.
As to `CCOC(=O)c1sc2ncnc(N)c2c1C`, the GI50 is 65.2 µM (inactive) in the experiment with MOLT-4; > 100 µM (inactive) with NCI/ADR-RES; > 100 µM (inactive) with SK-OV-3; 25.9 µM (inactive) with EKVX; 75.5 µM (inactive) in the experiment on SF-539; 35.3 µM (inactive) with UACC-62. The GI50 with Hs-578T is 44.1 µM (inactive); in the experiment on K562 it was > 100 µM (inactive); in the experiment on SR, 24.8 µM (inactive); in the experiment with HCT-116, 30.5 µM (inactive); in the experiment on HOP-92 it was 8.99 µM (inactive); in the experiment on SK-MEL-2 it was > 100 µM (inactive). The GI50 in the experiment on MDA-MB-435 is 36 µM (inactive); in the experiment on RPMI-8226, 95.5 µM (inactive); in the experiment on OVCAR-4 it was 20.4 µM (inactive); in the experiment on CAKI-1 it was 35.9 µM (inactive); in the experiment with SNB-19, 63.7 µM (inactive); with RXF 393 it was 22.8 µM (inactive). The GI50 was 34 µM (inactive) with TK-10 and > 100 µM (inactive) in the experiment on A549.
For `CCCCCC1=C/C(=C\c2[nH]c(-c3ccc[nH]3)cc2OC)N=C1C`, the GI50 in the experiment with MOLT-4 was < 0.01 µM (active); with NCI/ADR-RES, < 0.01 µM (active); in the experiment on SK-OV-3 it was 0.25 µM (active); in the experiment on EKVX, 0.0145 µM (active); in the experiment on SF-539 it was 0.0127 µM (active); with UACC-62, < 0.01 µM (active). In addition, the GI50 in the experiment on Hs-578T, with K562, in the experiment on SR, in the experiment with HCT-116, in the experiment with HOP-92 and in the experiment with SK-MEL-2 was < 0.01 µM (active) each time. Besides, the GI50 in the experiment with MDA-MB-435 was < 0.01 µM (active); in the experiment on RPMI-8226 it was < 0.01 µM (active); with OVCAR-4, < 0.01 µM (active); with CAKI-1 it was < 0.01 µM (active); with SNB-19 it was 0.0562 µM (active); in the experiment with RXF 393, 0.0115 µM (active). Also, the results for the GI50 in the experiment on TK-10 and in the experiment on A549 were 0.0329 µM (active) and 0.0167 µM (active), respectively.
